According to patent US7456164B2, “3- or 4-monosubtituted phenol and thiophenol derivatives useful as H3 ligands” (Pfizer, Inc, priority 2004, dated 2008):
Where two headings read alike, the source gives them in different places.

Molecular target: T1, human histamine H3 receptor (Homo sapiens, UniProt Q9Y5N1)
T1 construct: expressed in transfected cells
Assay: H3 cell based functional assay (cAMP, β-lactamase reporter gene)
Protocol: Compounds were evaluated using a cell based functional assay measuring cAMP through β-lactamase reporter gene activity. A stable cell line was generated from HEK-293 cells expressing a CRE β-lactamase reporter gene and transfected with human histamine H3 receptor cDNA. Cells were seeded at a density of 500,000 cells/ml, and grown overnight in MEM (Invitrogen) supplemented with 1% dialysed FBS (Sigma), 2 mM glutamine (Sigma), 1 mM sodium pyruvate (Sigma), 0.1 mM non essential amino acids (Invitrogen) and 25 mM HEPES (Sigma) in poly D lysine coated 384 well plates (BD Biosciences). […] Cells were incubated for 15 minutes plus/minus compound and their ability to permit 10 μM forskolin-stimulated cAMP synthesis in the presence of 1 nM imetit was measured as described above.

[1] = functional Ki from IC50 by Cheng-Prussoff, HEK-293 CRE β-lactamase cells, 10 μM forskolin, 1 nM imetit, read-out: Ki (H3 cell based assay - nM)

T1 sequence (Q9Y5N1 whole entry): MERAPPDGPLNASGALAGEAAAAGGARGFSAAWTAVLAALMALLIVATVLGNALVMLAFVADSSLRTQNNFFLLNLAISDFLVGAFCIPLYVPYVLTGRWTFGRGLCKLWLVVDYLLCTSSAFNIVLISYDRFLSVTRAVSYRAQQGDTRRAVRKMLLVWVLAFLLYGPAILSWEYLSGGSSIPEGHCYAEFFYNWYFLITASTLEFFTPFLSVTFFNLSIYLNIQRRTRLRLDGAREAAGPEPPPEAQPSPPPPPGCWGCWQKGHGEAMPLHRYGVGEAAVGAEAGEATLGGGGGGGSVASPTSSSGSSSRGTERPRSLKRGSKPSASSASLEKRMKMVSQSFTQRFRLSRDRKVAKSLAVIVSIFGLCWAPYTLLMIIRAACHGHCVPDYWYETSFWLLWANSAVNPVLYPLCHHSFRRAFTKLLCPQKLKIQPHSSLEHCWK

Ki [1] [nM] | Compound | Ki [nM]
2.6 | CN(C)CC1(c2ccc(OCCCN3CCOCC3)cc2)CCOCC1 [Example 213, N,N-dimethyl-1-{4-[4-(3-morpholin-4-ylpropoxy)phenyl]tetrahydro-2H-pyran-4-yl}methanamine] | –
10.3 | CN(C)C(=O)C1(c2ccc(OCCCN3CCCC3)cc2)CCOCC1 [Example 191, N,N-dimethyl-4-[4-(3-pyrrolidin-1-ylpropoxy)-phenyl]tetrahydro-2H-pyran-4-carboxamide] | –
14.3 | O=C(N1CCC1)C1(c2ccc(OCCCN3CCCC3)cc2)CCOCC1 [Example 189, 1-(3-{4-[4-(azetidin-1-ylcarbonyl)tetrahydro-2H-pyran-4-yl]phenoxy}propyl)pyrrolidine] | –
3.9 | c1cc2c(cn1)ncn2CC1(c2ccc(OCCCN3CCCC3)cc2)CCOCC1 [Example 247, 1-({4-[4-(3-pyrrolidin-1-ylpropoxy)phenyl]tetrahydro-2H-pyran-4-yl}methyl)-1H-imidazo[4,5-c]pyridine] | –
5.8 | c1ccc(C2(c3ccc(OCCCN4CCCC4)cc3)CCOCC2)nc1 [Example 205, 2-{4-[4-(3-pyrrolidin-1-ylpropoxy)phenyl]tetrahydro-2H-pyran-4-yl}-pyridine] | –
9.7 | c1cnc2ncn(CC3(c4ccc(OCCCN5CCCC5)cc4)CCOCC3)c2c1 [Example 249, 1-({4-[4-(3-pyrrolidin-1-ylpropoxy)phenyl]tetrahydro-2H-pyran-4-yl}methyl)-1H-imidazo[4,5-b]pyridine] | –
6.8 | O=C(N1CCCCC1)C1(c2ccc(OCCCN3CCCC3)cc2)CCOCC1 [Example 188, 1-({4-[4-(3-pyrrolidin-1-ylpropoxy)phenyl]-tetrahydro-2H-pyran-4-yl}carbonyl)piperidine] | –
– | CC(C)N1CCC(Oc2ccc(C3(CNc4ccnnc4)CCOCC3)cc2)CC1 [Example 267, N-[(4-{4-[(1-isopropylpiperidin-4-yl)oxy]phenyl}tetrahydro-2H-pyran-4-yl)methyl]pyridazin-4-amine] | 5.8
1.3 | CNCC1(c2ccc(OCCCN3CCOCC3)cc2)CCOCC1 [Example 254, N-methyl-1-{4-[4-(3-morpholin-4-ylpropoxy)phenyl]tetrahydro-2H-pyran-4-yl}methanamine] | –
10.8 | c1cc(C2(Cn3cnnc3)CCOCC2)ccc1OCCCN1CCCC1 [Example 272, 4-({4-[4-(3-pyrrolidin-1-ylpropoxy)phenyl]tetrahydro-2H-pyran-4-yl}methyl)-4H-1,2,4-triazole] | –
0.3 | c1cnc2c(c1)ncn2CC1(c2ccc(OCCCN3CCCC3)cc2)CCOCC1 [Example 248, 3-({4-[4-(3-pyrrolidin-1-ylpropoxy)phenyl]tetrahydro-2H-pyran-4-yl}methyl)-3H-imidazo[4,5-b]pyridine] | –
2 | CNC(=O)C1(c2ccc(OC3CCN(C4CCC4)CC3)cc2)CCOCC1 [Example 156, 4-{4-[(1-cyclobutylpiperidin-4-yl)oxy]phenyl}-N-methyltetrahydro-2H-pyran-4-carboxamide] | –
9.7 | c1c[nH]c(C2(c3ccc(OCCCN4CCCC4)cc3)CCOCC2)n1 [Example 266, 2-{4-[4-(3-pyrrolidin-1-ylpropoxy)phenyl]tetrahydro-2H-pyran-4-yl}-1H-imidazole] | –
6.2 | c1cc(C2(c3ccc(OCCCN4CCCC4)cc3)CCOCC2)ncn1 [Example 276, 4-{4-[4-(3-pyrrolidin-1-ylpropoxy)phenyl]tetrahydro-2H-pyran-4-yl}pyrimidine] | –
4.6 | c1cc(NCC2(c3ccc(OCCCN4CCCC4)cc3)CCOCC2)cnn1 [Example 250, N-({4-[4-(3-pyrrolidin-1-ylpropoxy)phenyl]tetrahydro-2H-pyran-4-yl}methyl)pyridazin-4-amine] | –
1.5 | CCNC(=O)C1(c2ccc(OC3CCN(C4CCC4)CC3)cc2)CCOCC1 [Example 160, 4-{4-[(1-cyclobutylpiperidin-4-yl)oxy]phenyl}-N-ethyltetrahydro-2H-pyran-4-carboxamide] | –
3.9 | Cc1csc(C2(c3ccc(OCCCN4CCCC4)cc3)CCOCC2)n1 [Example 136, 4-methyl-2-[4-(4-(3-pyrrolidin-1-ylpropoxy)phenyl)tetrahydro-2H-pyran-4-yl]-1,3-thiazole] | –
0.4 | CN(C)CC1(c2ccc(OCCCN3CCCC3)cc2)CCOCC1 [Example 29, Dimethyl-{4-[4-(3-pyrrolidin-1-ylpropoxy)phenyl]-tetrahydro-pyran-4-ylmethyl}amine] | –
2.4 | CCN(C)C(=O)C1(c2ccc(OCCCN3CCCC3)cc2)CCOCC1 [Example 190, N-ethyl-N-methyl-4-[4-(3-pyrrolidin-1-ylpropoxy)phenyl]tetrahydro-2H-pyran-4-carboxamide] | –
2.2 | CC(C)N1CC(COc2ccc(C3(CN4CCOCC4)CCOCC3)cc2)C1 [Example 220, 4-[(4-{4-[(1-isopropylazetidin-3-yl)methoxy]phenyl}tetrahydro-2H-pyran-4-yl)methyl]morpholine] | –
0.6 | c1ccc2c(c1)ncn2CC1(c2ccc(OCCCN3CCCC3)cc2)CCOCC1 [Example 196] | –
7.3 | O=C(N1CCCC1)C1(c2ccc(OCCCN3CCCC3)cc2)CCOCC1 [Example 187, 1-(3-{4-[4-(pyrrolidin-1-ylcarbonyl)tetrahydro-2H-pyran-4-yl]phenoxy}propyl)pyrrolidine] | –
6.5 | c1cc(C2(CN3CCOCC3)CCOCC2)ccc1OCCCN1CCCOCC1 [Example 268, 4-(3-{4-[4-(morpholin-4-ylmethyl)tetrahydro-2H-pyran-4-yl]phenoxy}propyl)-1,4-oxazepane] | –
1 | CN(C)C(=O)C1(c2ccc(OC3CCN(C4CCC4)CC3)cc2)CCOCC1 [Example 155, 4-{4-[(1-cyclobutylpiperidin-4-yl)oxy]phenyl}-N,N-dimethyltetrahydro-2H-pyran-4-carboxamide] | –
12.4 | CC(C)N1CCC(Oc2ccc(C3(C(=O)N(C)C)CCOCC3)cc2)CC1 [Example 133, 4-{4-[(1-isopropylpiperidin-4-yl)oxy]phenyl}-N,N-dimethyltetrahydro-2H-pyran-4-carboxamide] | –
12.9 | c1ncc(C2(c3ccc(OCCCN4CCCC4)cc3)CCOCC2)o1 [Example 206, 5-{4-[4-(3-pyrrolidin-1-ylpropoxy)phenyl]tetrahydro-2H-pyran-4-yl}-1,3-oxazole] | –
